Assay results published in patent US20220372013A2, “PIPERIDINE-2,6-DIONE DERIVATIVES AND CROHN'S DISEASE TREATING” (Tianjin Hemay Pharmaceutical Sci-Tech Co., Ltd, priority 2016, published 2022).
Marks after values point to notes of the source that are not given here.

How the values were obtained:
mice = experiment: Biological Example 5: acute toxicity experiment of single oral administration in mice; assay type: in vivo; details: single oral 1000 mg/Kg, Mean ± SD
Procedure, shortened: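 Fasted ICR mice (19-21 g, three females and three males per group) received a single oral dose of 1000 mg/Kg, given first to one mouse of each sex and then to the remaining four. Behaviour, nervous and autonomic signs, and deaths were recorded over 0-15 min. Animals were then observed for 7 days with daily body weight.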

[1] = test system: DNBS-Induced Inflammatory Bowel Disease Models in Rats; experiment: Biological Example 2: DNBS-induced inflammatory bowel disease models in rats; assay type: in vivo, Wistar rats; details: for Adhesion Degree / Colon Length / Colon Weight / Ulcer Area: sixth day, Mean ± SD; for growth rate of the body weight (in words): fourth day of the experiment, compared with model control group, doses as in Table 7
Protocol: 110 male Wistar rats were fasted for 40 hours. A 5% glucose injection (10 mL/Kg) was administered subcutaneously during fasting. 48 rats with normal conditions and moderate body weight were selected from the fasting rats. The animals were randomly divided into […] according to the body weight: normal control group, model control group, sulfasalazine group (300 mg/Kg), dexamethasone group (0.1 mg/Kg), the compound in Example 26 group (30 mg/kg) and the compound in Example 27 group (30 mg/kg), with 8 rats in each group. The animals were anesthetized with isoflurane. A specially made gavage device (made by a rat gavage device having the diameter of 2 mm, which was nested on a mouse gavage device having the diameter of 1 mm) was slowly inserted into the enteric cavity at 8 cm from the anus. The model control group, the compound in Example 26 group and the compound in Example 27 group were administered with 0.5 mL of 50 mg/mL DNBS in 30% ethanol solution. The normal control group was administered with 0.5 mL of 30% ethanol solution. The animals were inverted in anesthesia for 15 minutes after the gavage device was removed. The day when the model was prepared was the first day of the experiment. After 4 hours of DNBS induction, the corresponding drug or the corresponding volume of 1% CMC-Na was administered once per day. On the sixth day of the experiment, the animals were euthanized to observe the results of each index so as to score the colon adhesion degree, measure the length of colon and ulcer area, weigh colon and calculate the colon weight to length ratio.
The compound in Example 26 and Example 27, sulfasalazine and dexamethasone: Preparation Method: Suspended with 1% CMC-Na, and prepared when it was needed.
Levene's Test for homogeneity of data was performed with Spss. Where the data were homogeneous (P>0.05), one-way ANOVA LSD test was performed. Where the analysis of variance was significant (P≤0.05), Dunnett's multiple comparison (parameter method) was performed. Where the results of Levene's Test were significant (P≤0.05), Kruskal-Wallis nonparametric test was performed. Where the results of Kruskal-Wallis nonparametric test were significant (P≤0.05), Mann-Whitney U test was performed for pairwise comparison.

Crohn's disease = details: C. Yang et, Aliment Pharmacol Ther 2015; cited from earlier work
[2] = test system: DNBS-Induced Inflammatory Bowel Disease Models in Rats; experiment: Biological Example 1: DNBS-induced inflammatory bowel disease models in rats; assay type: in vivo, Wistar rats
Protocol: Wistar rats, male, body weight of 100-120 g.
90 male Wistar rats were fasted for 40 hours. A 5% glucose injection was administered subcutaneously during fasting. 60 rats with normal conditions and moderate body weight were selected from the fasting rats. The animals were randomly divided into 6 groups according to the body weight: normal control group, model control group, sulfasalazine group (300 mg/Kg), and the compound in Example 27 groups consisting of 5, 15 and 30 mg/Kg dose groups. There were 10 rats in each group. The animals were anesthetized with ether. A specially made gavage device (made by a rat gavage device having the diameter of 2 mm, which was nested on a mouse gavage device having the diameter of 1 mm) was slowly inserted into the enteric cavity at 8 cm from the anus. The model control group, the sulfasalazine group and the compound in Example 27 groups were administered with 0.5 mL of 50 mg/mL DNBS in 30% ethanol solution. The normal control group was administered with 0.5 mL of 30% ethanol solution. The animals were inverted in anesthesia for 15 minutes after the gavage device was removed. The day when the model was prepared was the first day of the experiment. After 4 hours of DNBS induction, the corresponding drug or the corresponding volume of 1% CMC-Na was administered once per day. The body weights were recorded and the stool characteristics were scored. On the sixth day of the experiment colon tissues were taken from the animals to observe the results of each index.
The compound in Example 27 and sulfasalazine: Preparation Method: Suspended with 1% CMC-Na, and prepared when it was needed.
Animals were euthanized on the sixth day of the experiment to observe the results of each index. After the animals were sacrificed, colons were obtained. The adhesion degree of colon was observed and the length of the colon was measured. The ulcer area was calculated after removing the contents in the colon and the weight of the colon tissue was weighed. The colon tissue was longitudinally divided into two parts. One part of the colon tissue was fixed in 10% formalin solution for later use. The other part of the colon tissue was put into the liquid nitrogen to quickly frozen, and then was reserved at −80° C. for the detection of MPO.
Calculation method for ulcer area: length of ulcer point (cm)×width of ulcer point (cm).
The frozen tissue was ground into powder in liquid nitrogen. An appropriate amount of the powder was weighed and was added into 50 mM potassium phosphate solution (containing 0.5% cetyltrimethylammonium bromide) to give a 25 mg/mL solution. The resultant solution was homogenized by an electric homogenizer. 1 mL of suspension was centrifuged to give a supernatant. 7 μL of the supernatant was added into a 96-well plate and 200 μL of o-dianisidine mixture (containing 0.167 mg/mL o-dianisidine and 0.0006% H2O2 potassium phosphate buffer). OD values of the resultant solution at 0, 30, 60, and 90 s were detected at 450 nm of the microplate reader.
Test for homogeneity of variance was performed with Spss13.0. Where variance of data was homogeneous (P>0.05), one-way ANOVA LSD test was performed. Where the analysis of variance was significant (P<0.05), then Dunnett's multiple comparison (parameter method) or Kruskal-Wallis non-parametric test was performed. Where the results of Kruskal-Wallis non-parametric test were significant (P<0.05), the Mann-Whitney U test was performed for pairwise comparison.

[3] = 300 mg/Kg i.g. qd × 6, sixth day, Mean ± SD

## COCCCN1C(=O)CCC(N2C(=O)c3cccc(N)c3C2=O)C1=O (stereo not shown) [Example 26, 4-amino-2-(1-(3-methoxypropyl)-2,6-dioxopiperidin-3-yl)isoindolin-1,3-dione]
mice; Female mice, Day 1
  Daily Body Weight: 18.0 ± 0.7 g
mice; Female mice, Day 2
  Daily Body Weight: 21.9 ± 0.3 g
mice; Female mice, Day 3
  Daily Body Weight: 22.1 ± 0.5 g
mice; Female mice, Day 4
  Daily Body Weight: 22.4 ± 0.2 g
mice; Female mice, Day 5
  Daily Body Weight: 22.7 ± 0.3 g
mice; Female mice, Day 6
  Daily Body Weight: 22.6 ± 0.3 g
mice; Female mice, Day 7
  Daily Body Weight: 22.4 ± 0.2 g
mice; Male mice, Day 1
  Daily Body Weight: 18.7 ± 0.8 g
mice; Male mice, Day 2
  Daily Body Weight: 23.4 ± 0.5 g
mice; Male mice, Day 3
  Daily Body Weight: 25.0 ± 0.6 g
mice; Male mice, Day 4
  Daily Body Weight: 26.6 ± 1.4 g
mice; Male mice, Day 5
  Daily Body Weight: 27.3 ± 1.3 g
mice; Male mice, Day 6
  Daily Body Weight: 28.3 ± 1.3 g
mice; Male mice, Day 7
  Daily Body Weight: 28.8 ± 1.4 g
[1]; 30 mg/Kg i.g. qd × 6
  Adhesion Degree: 0.3 ± 0.5 Points
  Colon Length: 13.7 ± 1.4 cm
  Colon Weight: 1628.3 ± 185.5 mg
  Ulcer Area: 1.1 ± 0.9## cm^2
[1]; 30 mg/kg i.g. qd × 6
  therapeutic effects on the model (in words): good therapeutic effects
[1]
  growth rate of the body weight (in words): higher than that in the model control group

## Nc1cccc2c1CN(C1CCC(=O)NC1=O)C2=O (stereo not shown) [lenalidomide]
Crohn's disease
  effectiveness in the treatment of Crohn's disease (in words): not effective

## O=C(O)c1cc(/N=N/c2ccc(S(=O)(=O)Nc3ccccn3)cc2)ccc1O [Sulfasalazine, sulfasalazine, reference compound]
[2]; [3]
  Adhesion Degree: 0.2 ± 0.4 Point
  Colon MPO Activity: 26.0 ± 14.8 U/mg
  Colon Weight: 1794.9 ± 242.3 mg
  Colon weight to length ratio: 140.6 ± 27.9 mg/cm
  Ulcer Area: 0.7 ± 0.6 cm^2
[2]; 300 mg/Kg, vs model control group
  reduction of the ulcer area: 60%
[1]; 300 mg/Kg i.g. qd × 6
  Adhesion Degree: 0.8 ± 0.7 Points
  Colon Length: 13.2 ± 2.5 cm
  Colon Weight: 1776.1 ± 280.7 mg
  Ulcer Area: 1.6 ± 1.2# cm^2
[1]
  growth rate of the body weight (in words): higher than that in the model control group

## O=C1CCC(N2C(=O)c3ccccc3C2=O)C(=O)N1 (stereo not shown) [thalidomide]
Crohn's disease
  effectiveness in the treatment of Crohn's disease (in words): not effective

## C[C@@H]1C[C@H]2[C@@H]3CCC4=CC(=O)C=C[C@]4(C)[C@@]3(F)[C@@H](O)C[C@]2(C)[C@@]1(O)C(=O)CO [Dexamethasone, dexamethasone, reference compound]
[1]; 0.1 mg/Kg i.g. qd × 6
  Adhesion Degree: 0.3 ± 0.5 Points
  Colon Length: 14.2 ± 0.9 cm
  Colon Weight: 1496.0 ± 450.0 mg
  Ulcer Area: 1.4 ± 1.5# cm^2
